Assay results as given in patent US20070128217A1 (priority 2003, published 2007).

Columns and labels:
[1] = system: antibodies in sera from SARS patients (sera 1a, 1b, 2, 6, 37, 62, London, SARS-yellow, SARS-green); type: binding, human; design: Binding of serum 6 to linear peptides of protein X1 of SARS-CoV Urbani / Binding of serum 37 to linear peptides of protein X1 of SARS-CoV Urbani / Binding of serum 6 to looped/cyclic peptide (PEPSCAN-ELISA) / Binding of serum 37 to looped/cyclic peptide (PEPSCAN-ELISA) / Binding of serum 37 to looped/cyclic peptides of protein X1 of SARS-CoV Urbani / Binding of serum 6 to linear peptides of protein X2 / Binding of serum 37 to linear peptides of protein X2 / Binding of serum 37 to looped/cyclic peptides of protein X2 of SARS-CoV Urbani / Binding of serum 6 to linear peptides of protein M of SARS-CoV Urbani / Binding of serum 37 to linear peptides of protein M of SARS-CoV Urbani / Binding of serum 6 to looped/cyclic peptides of protein M of SARS-CoV Urbani / Binding of serum 37 to looped/cyclic peptides of protein M of SARS-CoV Urbani / Binding of serum 6 to linear peptides of protein X3 of SARS-CoV Urbani / Binding of serum 37 to linear peptides of protein X3 of SARS-CoV Urbani / Binding of serum 37 to looped/cyclic peptides of protein X3 of SARS-CoV Urbani / Binding of serum 6 to linear peptides of protein X4 of SARS-CoV Urbani / Binding of serum 37 to linear peptides of protein X4 of SARS-CoV Urbani / Binding of serum 37 to looped/cyclic peptides of protein X4 of SARS-CoV Urbani / Binding of serum 6 to linear peptides of protein X5 of SARS-CoV Urbani / Binding of serum 37 to linear peptides of protein X5 of SARS-CoV Urbani / Binding of serum 37 to looped/cyclic peptides of protein X5 of SARS-CoV Urbani / Binding of serum 6 to linear peptides of protein N of SARS-CoV Urbani / Binding of serum 37 to linear peptides of protein N of SARS-CoV Urbani / Binding of serum 6 to linear peptide (PEPSCAN-ELISA) / Binding of serum 1a to looped/cyclic peptides of protein N of SARS-CoV Urbani / Binding of serum 1b to looped/cyclic peptides of protein N of SARS-CoV Urbani / Binding of serum 2 to looped/cyclic peptides of protein N of SARS-CoV Urbani / Binding of serum 6 to looped/cyclic peptides of protein N of SARS-CoV Urbani / Binding of serum 37 to looped/cyclic peptides of protein N of SARS-CoV Urbani / Binding of serum 62 to looped/cyclic peptides of protein N of SARS-CoV Urbani / Binding of serum London to looped/cyclic peptides of protein N of SARS-CoV Urbani / Binding of serum SARS-green to looped/cyclic peptides of protein N of SARS-CoV Urbani: unit not given here
[2] = system: control sera (pooled serum of ten healthy LUMC hospital workers; commercial negative donor pooled serum from the Dutch bloodbank); type: binding, human; design: Binding of Control serum LUMC to linear peptides / Binding of Control serum Blood-bank to linear peptides / Binding of Control serum LUMC to looped peptides / Binding of Control Serum Blood-Bank to Looped peptides / Binding of Control serum LUMC to linear peptides of the protein M of SARS-CoV Urbani / Binding of Control serum Blood-bank to linear peptides of the protein M of SARS-CoV Urbani / Binding of Control serum LUMC to looped peptides of the protein M of SARS-CoV Urbani / Binding of Control Serum Blood-Bank to Looped peptides of the protein M of SARS-CoV Urbani: unit not given here
[3] = system: rabbit serum obtained by immunizing a rabbit with the SARS-CoV strain Frankfurt 1; type: binding; design: Binding of a rabbit serum to linear peptides / Binding of a rabbit serum to looped peptides / Rabbit serum linear peptides / Rabbit serum looped peptides / Binding of a rabbit serum to linear peptides of protein N of SARS-CoV Urbani (Rabbit serum linear peptides) / Binding of a rabbit serum to looped/cyclic peptides of protein N of SARS-CoV Urbani (Rabbit serum looped peptides): unit not given here

CIPYNSVTDTIVVTE
Binding of serum 1a to linear peptides of protein X1 of SARS-CoV Urbani [1]: 0.7 | Binding of serum 1b to linear peptides of protein X1 of SARS-CoV Urbani [1]: 0.6 | Binding of serum 1b to looped/cyclic peptides of protein X1 of SARS-CoV Urbani [1]: 0.4 | Binding of serum 2 to linear peptides of protein X1 of SARS-CoV Urbani [1]: 0.5 | Binding of serum 2 to looped/cyclic peptides of protein X1 of SARS-CoV Urbani [1]: 0.5 | Binding of serum 6 to linear peptides of protein X1 of SARS-CoV Urbani [1]: 0.5 | Binding of serum 6 to looped/cyclic peptides of protein X1 of SARS-CoV Urbani [1]: 0.2 | Binding of serum 37 to linear peptides of protein X1 of SARS-CoV Urbani [1]: 0.7 | Binding of serum 37 to looped/cyclic peptides of protein X1 of SARS-CoV Urbani [1]: 0.6 | Binding of serum 62 to linear peptides of protein X1 of SARS-CoV Urbani [1]: 0.6 | Binding of serum 62 to looped/cyclic peptides of protein X1 of SARS-CoV Urbani [1]: 0.5 | Binding of serum London to linear peptides of protein X1 of SARS-CoV Urbani [1]: 0.3 | Binding of serum London to looped/cyclic peptides of protein X1 of SARS-CoV Urbani [1]: 0.2 | Binding of serum SARS-green to linear peptides of protein X1 of SARS-CoV Urbani [1]: 0.3 | Binding of serum SARS-green to looped/cyclic peptides of protein X1 of SARS-CoV Urbani [1]: 0.3 | Binding of serum SARS-yellow to linear peptides of protein X1 of SARS-CoV Urbani [1]: 0.5 | Binding of serum SARS-yellow to looped/cyclic peptides of protein X1 of SARS-CoV Urbani [1]: 0.4 | Binding of Control Serum Blood-Bank to Looped peptides [2]: 0.6 | Binding of Control serum Blood-bank to linear peptides [2]: 0.5 | Binding of Control serum LUMC to linear peptides [2]: 0.6 | Binding of Control serum LUMC to looped peptides [2]: 0.5 | Binding of a rabbit serum to linear peptides [3]: 0.1 | Binding of a rabbit serum to looped peptides [3]: 0.4

CKHKKVSTNLCTHSF
Binding of serum 1a to looped/cyclic peptides of protein X2 of SARS-CoV Urbani [1]: 0.7 | Binding of serum 1b to looped/cyclic peptides of protein X2 of SARS-CoV Urbani [1]: 0.7 | Binding of serum 2 to looped/cyclic peptides of protein X2 of SARS-CoV Urbani [1]: 0.4 | Binding of serum 6 to looped/cyclic peptides of protein X2 of SARS-CoV Urbani [1]: 0.3 | Binding of serum 37 to looped/cyclic peptides of protein X2 of SARS-CoV Urbani [1]: 0.6 | Binding of serum 62 to looped/cyclic peptides of protein X2 of SARS-CoV Urbani [1]: 0.5 | Binding of serum London to looped/cyclic peptides of protein X2 of SARS-CoV Urbani [1]: 0.3 | Binding of serum SARS-green to looped/cyclic peptides of protein X2 of SARS-CoV Urbani [1]: 0.4 | Binding of serum SARS-yellow to looped/cyclic peptides of protein X2 of SARS-CoV Urbani [1]: 0.9 | Recognition of the peptide by sera of SARS-CoV infected individuals, and form (linear, looped/cyclic) in which it is recognized [1]: recognized in linear form | Binding of Control Serum Blood-Bank to Looped peptides [2]: 0.1 | Binding of Control serum Blood-bank to linear peptides [2]: 0.8 | Binding of Control serum LUMC to linear peptides [2]: 1.0 | Binding of Control serum LUMC to looped peptides [2]: 0.4 | Binding of a rabbit serum to linear peptides [3]: 0.3 | Binding of a rabbit serum to looped peptides [3]: 0.5

CRIIMRCWLCWKCKS
Binding of serum 1a to looped/cyclic peptide (PEPSCAN-ELISA) [1]: 0.5 | Binding of serum 1b to looped/cyclic peptide (PEPSCAN-ELISA) [1]: 0.4 | Binding of serum 2 to looped/cyclic peptide (PEPSCAN-ELISA) [1]: 0.5 | Binding of serum 6 to looped/cyclic peptide (PEPSCAN-ELISA) [1]: 0.5 | Binding of serum 37 to looped/cyclic peptide (PEPSCAN-ELISA) [1]: 0.6 | Binding of serum 62 to looped/cyclic peptide (PEPSCAN-ELISA) [1]: 0.6 | Binding of serum London to looped/cyclic peptide (PEPSCAN-ELISA) [1]: 0.4 | Binding of serum SARS-green to looped/cyclic peptide (PEPSCAN-ELISA) [1]: 0.2 | Binding of serum SARS-yellow to looped/cyclic peptide (PEPSCAN-ELISA) [1]: 0.4 | Recognition of the peptide by sera of SARS-CoV infected individuals, and form (linear, looped/cyclic) in which it is recognized [1]: recognized in linear form | Binding of Control Serum Blood-Bank to Looped peptides [2]: 0.7 | Binding of Control serum Blood-bank to linear peptides [2]: 0.4 | Binding of Control serum LUMC to linear peptides [2]: 0.3 | Binding of Control serum LUMC to looped peptides [2]: 0.7 | Binding of a rabbit serum to linear peptides [3]: 0.1 | Binding of a rabbit serum to looped peptides [3]: 0.7

CWKCKSKNPLLYDAN
Binding of serum 1a to looped/cyclic peptide (PEPSCAN-ELISA) [1]: 0.7 | Binding of serum 1b to looped/cyclic peptide (PEPSCAN-ELISA) [1]: 0.6 | Binding of serum 2 to looped/cyclic peptide (PEPSCAN-ELISA) [1]: 0.5 | Binding of serum 6 to looped/cyclic peptide (PEPSCAN-ELISA) [1]: 0.4 | Binding of serum 37 to looped/cyclic peptide (PEPSCAN-ELISA) [1]: 0.7 | Binding of serum 62 to looped/cyclic peptide (PEPSCAN-ELISA) [1]: 0.6 | Binding of serum London to looped/cyclic peptide (PEPSCAN-ELISA) [1]: 0.3 | Binding of serum SARS-green to looped/cyclic peptide (PEPSCAN-ELISA) [1]: 0.2 | Binding of serum SARS-yellow to looped/cyclic peptide (PEPSCAN-ELISA) [1]: 0.6 | Recognition of the peptide by sera of SARS-CoV infected individuals, and form (linear, looped/cyclic) in which it is recognized [1]: recognized in linear form | Binding of Control Serum Blood-Bank to Looped peptides [2]: 0.7 | Binding of Control serum Blood-bank to linear peptides [2]: 0.7 | Binding of Control serum LUMC to linear peptides [2]: 0.8 | Binding of Control serum LUMC to looped peptides [2]: 0.7 | Binding of a rabbit serum to linear peptides [3]: 0.1 | Binding of a rabbit serum to looped peptides [3]: 0.5

DFQVTIAEILIIIMR
Binding of serum 1a to linear peptides of protein X3 of SARS-CoV Urbani [1]: 0.7 | Binding of serum 1a to looped/cyclic peptides of protein X3 of SARS-CoV Urbani [1]: 0.7 | Binding of serum 1b to linear peptides of protein X3 of SARS-CoV Urbani [1]: 0.5 | Binding of serum 1b to looped/cyclic peptides of protein X3 of SARS-CoV Urbani [1]: 0.4 | Binding of serum 2 to linear peptides of protein X3 of SARS-CoV Urbani [1]: 0.6 | Binding of serum 2 to looped/cyclic peptides of protein X3 of SARS-CoV Urbani [1]: 0.7 | Binding of serum 6 to linear peptides of protein X3 of SARS-CoV Urbani [1]: 0.5 | Binding of serum 6 to looped/cyclic peptides of protein X3 of SARS-CoV Urbani [1]: 0.4 | Binding of serum 37 to linear peptides of protein X3 of SARS-CoV Urbani [1]: 0.6 | Binding of serum 37 to looped/cyclic peptides of protein X3 of SARS-CoV Urbani [1]: 0.7 | Binding of serum 62 to linear peptides of protein X3 of SARS-CoV Urbani [1]: 0.6 | Binding of serum 62 to looped/cyclic peptides of protein X3 of SARS-CoV Urbani [1]: 0.5 | Binding of serum London to linear peptides of protein X3 of SARS-CoV Urbani [1]: 0.6 | Binding of serum London to looped/cyclic peptides of protein X3 of SARS-CoV Urbani [1]: 0.2 | Binding of serum SARS-green to linear peptides of protein X3 of SARS-CoV Urbani [1]: 0.4 | Binding of serum SARS-green to looped/cyclic peptides of protein X3 of SARS-CoV Urbani [1]: 0.2 | Binding of serum SARS-yellow to linear peptides of protein X3 of SARS-CoV Urbani [1]: 0.5 | Binding of serum SARS-yellow to looped/cyclic peptides of protein X3 of SARS-CoV Urbani [1]: 0.7 | Binding of Control Serum Blood-Bank to Looped peptides of the protein X3 of SARS-CoV Urbani [2]: 0.8 | Binding of Control serum Blood-bank to linear peptides of the protein X3 of SARS-CoV Urbani [2]: 0.8 | Binding of Control serum LUMC to linear peptides of the protein X3 of SARS-CoV Urbani [2]: 0.6 | Binding of Control serum LUMC to looped peptides of the protein X3 of SARS-CoV Urbani [2]: 0.7 | Rabbit serum linear peptides [3]: 0.3 | Rabbit serum looped peptides [3]: 0.3
